# According to US9802927B2, “Oxadiazine compounds and methods of use thereof” (Denali Therapeutics, Inc., priority 2015, dated 2017):
# System: Aβ42
# Assay: In vitro cell screening assay in H4 cells expressing human APP751: Aβ42 by sandwich ELISA
# Type: cell-based
# Details: compounds 0.003-10 μM, incubated overnight (16-18 h), sandwich ELISA of supernatant
# Outline: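 Secreted Aβ42 measured by sandwich ELISA, C-terminal-specific capture and 4G8-HRP detection, TMB read at 450 nm, from supernatants of APP751-expressing H4 cells exposed overnight (16-18 h) to 0.003-10 μM compound in Pro293 medium, 0.33% DMSO. Data scaled between DMSO and DAPT controls; EC50 from variable-slope nonlinear regression.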
Compound,EC50,EC50 (Homo sapiens)
"COc1cc(C2=NOCC(c3nc4cccc(C)c4o3)N2C)ccc1-n1cnc(C)c1 (single isomer, unassigned; (-)) [Example 212B, (−)-2-(3-(3-methoxy-4-(4-methyl-1H-imidazol-1-yl)phenyl)-4-methyl-5,6-dihydro-4H-1,2,4-oxadiazin-5-yl)-7-methylbenzo[d]oxazole]",> 3000 nM,–
"COc1nc(C2=NOCC(c3cn(C)c4ccc(C#N)cc34)N2)ccc1-n1cnc(C)c1 (single isomer, unassigned; (+)) [Example 245B, (+)-3-(3-(6-methoxy-5-(4-methyl-1H-imidazol-1-yl)pyridin-2-yl)-5,6-dihydro-4H-1,2,4-oxadiazin-5-yl)-1-methyl-1H-indole-5-carbonitrile]",18.5 nM,–
"COc1nc(C2=NOCC(c3cccc(C(F)(F)F)c3)N2C)ccc1-n1cnc(C)c1 (stereo not drawn) [Example 30A, 3-(6-methoxy-5-(4-methyl-1H-imidazol-1-yl)pyridin-2-yl)-4-methyl-5-(3-(trifluoromethyl)phenyl)-5,6-dihydro-4H-1,2,4-oxadiazine]",55.7 nM,–
"COc1nc(C2=NOCC(c3cn(C)c4ccc(C5CC5)cc34)N2)ccc1-n1cnc(C)c1 (single isomer, unassigned; (-)) [Example 221A, (−)-5-(5-cyclopropyl-1-methyl-1H-indol-3-yl)-3-(6-methoxy-5-(4-methyl-1H-imidazol-1-yl)pyridin-2-yl)-5,6-dihydro-4H-1,2,4-oxadiazine]",59.9 nM,–
"COc1nc(C2=NOCC(c3cn(C)c4cc(Cl)cc(OC)c34)N2)ccc1-n1cnc(C)c1 (single isomer, unassigned; (-)) [Example 254A, (−)-5-(6-chloro-4-methoxy-1-methyl-1H-indol-3-yl)-3-(6-methoxy-5-(4-methyl-1H-imidazol-1-yl)pyridin-2-yl)-5,6-dihydro-4H-1,2,4-oxadiazine]",148 nM,–
"COc1nc(C2=NOCC(c3noc4ccccc34)N2)ccc1-n1cnc(C)c1 (single isomer, unassigned) [Example 174B, 3-(3-(6-methoxy-5-(4-methyl-1H-imidazol-1-yl)pyridin-2-yl)-5,6-dihydro-4H-1,2,4-oxadiazin-5-yl) benzo[d]isoxazole]",281 nM,–
"COc1nc(C2=NOCC(c3cc4ccc(C(F)(F)F)cc4o3)N2)ccc1-n1cnc(C)c1 (single isomer, unassigned; (+)) [Example 260B, (+)-3-(6-methoxy-5-(4-methyl-1H-imidazol-1-yl)pyridin-2-yl)-5-(6-(trifluoromethyl)benzofuran-2-yl)-5,6-dihydro-4H-1,2,4-oxadiazine]",4.8 nM,–
"COc1nc(C2=NOCC(c3cn(C)c4cc(Cl)cc(OC)c34)N2)ccc1-n1cnc(C)c1 (single isomer, unassigned; (+)) [Example 254B, (+)-5-(6-chloro-4-methoxy-1-methyl-1H-indol-3-yl)-3-(6-methoxy-5-(4-methyl-1H-imidazol-1-yl)pyridin-2-yl)-5,6-dihydro-4H-1,2,4-oxadiazine]",12.9 nM,–
"COc1nc(C2=NOCC(c3ccc(F)cc3F)N2)ccc1-n1cnc(C)c1 (single isomer, unassigned) [Example 129A, 5-(2,4-difluorophenyl)-3-(6-methoxy-5-(4-methyl-1H-imidazol-1-yl)pyridin-2-yl)-5,6-dihydro-4H-1,2,4-oxadiazine]",2780 nM,–
"COc1nc(C2=NOCC(c3cc4ccc(Cl)cc4o3)N2)ccc1-n1cnc(C)c1 (single isomer, unassigned; (-)) [Example 78A, (−)-5-(6-chlorobenzofuran-2-yl)-3-(6-methoxy-5-(4-methyl-1H-imidazol-1-yl)pyridin-2-yl)-5,6-dihydro-4H-1,2,4-oxadiazine]",1280 nM,–
"CCn1cc(C2CON=C(c3ccc(-n4cnc(C)c4)c(OC)n3)N2)c2cc(Cl)c(F)cc21 (single isomer, unassigned; (+)) [Example 73B, (+)-5-(5-chloro-1-ethyl-6-fluoro-1H-indol-3-yl)-3-(6-methoxy-5-(4-methyl-1H-imidazol-1-yl)pyridin-2-yl)-5,6-dihydro-4H-1,2,4-oxadiazine]",3.9 nM,–
"COc1nc(C2=NOCC(c3nc4ccccc4s3)N2)ccc1-n1cnc(C)c1 (single isomer, unassigned; (-)) [Example 208A, (−)-5-(benzo[d]thiazol-2-yl)-3-(6-methoxy-5-(4-methyl-1H-imidazol-1-yl)pyridin-2-yl)-5,6-dihydro-4H-1,2,4-oxadiazine]",> 3000 nM,–
"COc1nc(C2=NOCC(C3CCOCC3)N2)ccc1-n1cnc(C)c1 (single isomer, unassigned; (-)) [Example 143A, (−)-3-(6-methoxy-5-(4-methyl-1H-imidazol-1-yl)pyridin-2-yl)-5-(tetrahydro-2H-pyran-4-yl)-5,6-dihydro-4H-1,2,4-oxadiazine]",–,> 3000 nM
"COc1nc(C2=NOCC(c3cn(C)c4cccc(OC)c34)N2)ccc1-n1cnc(C)c1 (single isomer, unassigned; (-)) [Example 252A, (−)-5-(4-methoxy-1-methyl-1H-indol-3-yl)-3-(6-methoxy-5-(4-methyl-1H-imidazol-1-yl)pyridin-2-yl)-5,6-dihydro-4H-1,2,4-oxadiazine]",158 nM,–
"COc1nc(C2=NOCC(c3ccc(Cl)c(Cl)c3)N2)ccc1-n1cnc(C)c1 (single isomer, unassigned; (+)) [Example 49B, (+)-5-(3,4-dichlorophenyl)-3-(6-methoxy-5-(4-methyl-1H-imidazol-1-yl)pyridin-2-yl)-5,6-dihydro-4H-1,2,4-oxadiazine]",11.4 nM,–
"COc1nc(C2=NOCC(c3ccc(C4CC4)cc3)N2)ccc1-n1cnc(C)c1 (single isomer, unassigned; (-)) [Example 116A, (−)-5-(4-cyclopropylphenyl)-3-(6-methoxy-5-(4-methyl-1H-imidazol-1-yl)pyridin-2-yl)-5,6-dihydro-4H-1,2,4-oxadiazine]",767 nM,–
"COc1nc(C2=NOCC(c3cn(C)c4ccc(C(F)(F)F)cc34)N2)ccc1-n1cnc(C)c1 (single isomer, unassigned; (+)) [Example 233B, (+)-3-(6-methoxy-5-(4-methyl-1H-imidazol-1-yl)pyridin-2-yl)-5-(1-methyl-5-(trifluoromethyl)-1H-indol-3-yl)-5,6-dihydro-4H-1,2,4-oxadiazine]",1.7 nM,–
"COc1nc(C2=NOC[C@H](c3cc4c(C)cccc4o3)N2)ccc1-n1cnc(C)c1 [Example 19, (R)-3-(6-Methoxy-5-(4-methyl-1H-imidazol-1-yl)pyridin-2-yl)-5-(4-methylbenzofuran-2-yl)-5,6-dihydro-4H-1,2,4-oxadiazine]",–,11.5 nM
"COc1nc(C2=NOCC(CC(C)C)N2)ccc1-n1cnc(C)c1 (single isomer, unassigned; (+)) [Example 154A, (+)-5-isobutyl-3-(6-methoxy-5-(4-methyl-1H-imidazol-1-yl)pyridin-2-yl)-5,6-dihydro-4H-1,2,4-oxadiazine]",930 nM,–
"COc1nc(C2=NOCC(c3cc4cccc(C)c4o3)N2)ccc1-n1cnc(Cl)c1 (single isomer, unassigned; (+)) [Example 24, (+)-3-(5-(4-Chloro-1H-imidazol-1-yl)-6-methoxypyridin-2-yl)-5-(7-methylbenzofuran-2-yl)-5,6-dihydro-4H-1,2,4-oxadiazine]",–,13.7 nM
"COc1nc(C2=NOCC(c3ccc(C(C)(C)C)cc3)N2)ccc1-n1cnc(C)c1 (single isomer, unassigned; (+)) [Example 235B, (+)-5-(4-(tert-butyl)phenyl)-3-(6-methoxy-5-(4-methyl-1H-imidazol-1-yl)pyridin-2-yl)-5,6-dihydro-4H-1,2,4-oxadiazine]",9.5 nM,–
"COc1nc(C2=NOCC(c3ccc(C(C)(C)O)cc3)N2)ccc1-n1cnc(C)c1 (single isomer, unassigned; (+)) [Example 268B, (+)-2-(4-(3-(6-methoxy-5-(4-methyl-1H-imidazol-1-yl)pyridin-2-yl)-5,6-dihydro-4H-1,2,4-oxadiazin-5-yl)phenyl)propan-2-ol]",270 nM,–
"COc1nc(C2=NOCC(c3nn(C)c4ccc(C(F)(F)F)cc34)N2)ccc1-n1cnc(C)c1 (single isomer, unassigned; (-)) [Example 241A, (−)-3-(6-methoxy-5-(4-methyl-1H-imidazol-1-yl)pyridin-2-yl)-5-(1-methyl-5-(trifluoromethyl)-1H-indazol-3-yl)-5,6-dihydro-4H-1,2,4-oxadiazine]",386 nM,–
"COc1nc(C2=NOCC(c3cn(C)c4cc(Cl)ccc34)N2)ccc1-n1cnc(C)c1 (single isomer, unassigned; (-)) [Example 194B, (−)-5-(6-chloro-1-methyl-1H-indol-3-yl)-3-(6-methoxy-5-(4-methyl-1H-imidazol-1-yl)pyridin-2-yl)-5,6-dihydro-4H-1,2,4-oxadiazine]",147 nM,–
"COc1nc(C2=NOCC(c3cn(C)c4ncc(Cl)cc34)N2)ccc1-n1cnc(C)c1 (single isomer, unassigned; (+)) [Example 264B, (+)-5-(5-chloro-1-methyl-1H-pyrrolo[2,3-b]pyridin-3-yl)-3-(6-methoxy-5-(4-methyl-1H-imidazol-1-yl)pyridin-2-yl)-5,6-dihydro-4H-1,2,4-oxadiazine]",9.5 nM,–
"COc1nc(C2=NOCC(c3cc(F)c(F)c(F)c3)N2)ccc1-n1cnc(C)c1 (single isomer, unassigned; (-)) [Example 91A, (−)-3-(6-methoxy-5-(4-methyl-1H-imidazol-1-yl)pyridin-2-yl)-5-(3,4,5-trifluorophenyl)-5,6-dihydro-4H-1,2,4-oxadiazine]",> 3000 nM,–
"COc1nc(C2=NOCC(c3cccc(OC(F)(F)F)c3)N2)ccc1-n1cnc(C)c1 (single isomer, unassigned; (-)) [Example 242A, (−)-3-(6-methoxy-5-(4-methyl-1H-imidazol-1-yl)pyridin-2-yl)-5-(3-(trifluoromethoxy)phenyl)-5,6-dihydro-4H-1,2,4-oxadiazine]",709 nM,–
